Where “and” joins values, the source holds several entries; their conditions need not be identical. Equal entries are not always repeated.
Key:
C. albicans ATCC 10231 = assay: Antifungal broth microdilution (CLSI M27-A3), growth inhibition; format: cell-based, Candida albicans; conditions: for MIC50 (minimum concentration to inhibit 50% of fungal growth), C. albicans: C. albicans ATCC 10231
Protocol: (§1) The antifungal properties of compounds 1–24 against two clinical important fungal species, C. albicans ATCC 10231 and C. neoformans ATCC 32264 were investigated. Results were expressed as the percentages of inhibition of each fungus in the range 250–3.9 μg∙mL^−1 by using the standardized microbroth dilution method M-27A3 of Clinical and Laboratory Standards Institute which assures reliable and reproducible results.
(§2) For the antifungal evaluation, standardized strains from the American Type Culture Collection (ATCC), Rockville, MD, USA, were used. The microorganisms included yeasts (Candida albicans ATCC 10231 and Cryptococcus neoformans ATCC 32264). Strains were grown on Sabouraud-chloramphenicol agar slants for 48 h at 30 °C, maintained on slopes of Sabouraud-dextrose agar (SDA, Oxoid), and subcultured every 15 days to prevent pleomorphic transformations. Inocula of cell or spore suspensions were obtained according to reported procedures and adjusted to 1–5 × 10^3 cells/spores with colony forming units (CFU)/mL [29].
(§3) Broth microdilution techniques were performed in 96-well microplates according to the Clinical and Laboratory Standards Institute Reference Method for Broth Dilution Antifungal Susceptibility Testing of Yeasts, Approved Standard M27-A3 [29]. For the assay, compound test wells (CTWs) were prepared with stock solutions of each compound in DMSO (maximum concentration ≤1%), diluted with RPMI-1640, to final concentrations of 250–3.9 μg∙mL^−1. An inoculum suspension (100 μL) was added to each well (final volume in the well = 200 μL). A growth control well (GCW) (containing medium, inoculum, and the same amount of DMSO used in a CTW, but compound-free) and a sterility control well (SCW) (sample, medium, and sterile water instead of inoculum) were included for each fungus tested. Microtiter trays were incubated in a moist, dark chamber at 30 °C for 48 h for both yeasts. Microplates were read in a VERSA Max microplate reader (Molecular Devices, Sunnyvale, CA, USA). Amphotericin B (Sigma-Aldrich) was used as positive control. Tests were performed in triplicate. Reduction of growth for each compound concentration was calculated as follows: % of inhibition = 100 − (OD 405 CTW − OD 405 SCW)/(OD 405 GCW − OD 405 SCW). The means ± SEM were the results of triplicate tests. Three endpoints were defined from the assay explained above and the dose-response curves. Minimum Inhibitory concentration (MIC) resulting in total fungal growth inhibition was named MIC100 while MIC50 was defined as the minimum concentration that inhibits 50% of the fungal growth.

C. neoformans ATCC 32264 = assay: as above; format: cell-based, Cryptococcus neoformans; conditions: for MIC50 (minimum concentration to inhibit 50% of fungal growth), C. neoformans: C. neoformans ATCC 32264
Protocol: as §1, §2, §3

Compound	Inhibition percentage against C. albicans ATCC 10231 (C. albicans ATCC 10231; 3.9 μg∙mL^−1, 48 h) [%]	Inhibition percentage against C. albicans ATCC 10231 (C. albicans ATCC 10231; 7.8 μg∙mL^−1, 48 h) [%]	Inhibition percentage against C. albicans ATCC 10231 (C. albicans ATCC 10231; 15.6 μg∙mL^−1, 48 h) [%]	Inhibition percentage against C. albicans ATCC 10231 (C. albicans ATCC 10231; 62.5 μg∙mL^−1, 48 h) [%]	Inhibition percentage against C. albicans ATCC 10231 (C. albicans ATCC 10231; 125 μg∙mL^−1, 48 h) [%]	Inhibition percentage against C. albicans ATCC 10231 (C. albicans ATCC 10231; 250 μg∙mL^−1, 48 h) [%]	Inhibition percentage against C. albicans ATCC 10231 (C. albicans ATCC 10231; 31. μg∙mL^−1, 48 h) [%]	MIC50 (minimum concentration to inhibit 50% of fungal growth), C. albicans (C. albicans ATCC 10231) [µg/mL]	Inhibition percentage against C. neoformans ATCC 32264 (C. neoformans ATCC 32264; 3.9 μg∙mL^−1, 48 h) [%]	Inhibition percentage against C. neoformans ATCC 32264 (C. neoformans ATCC 32264; 7.8 μg∙mL^−1, 48 h) [%]	Inhibition percentage against C. neoformans ATCC 32264 (C. neoformans ATCC 32264; 15.6 μg∙mL^−1, 48 h) [%]	Inhibition percentage against C. neoformans ATCC 32264 (C. neoformans ATCC 32264; 31.2 μg∙mL^−1, 48 h) [%]	Inhibition percentage against C. neoformans ATCC 32264 (C. neoformans ATCC 32264; 62.5 μg∙mL^−1, 48 h) [%]	Inhibition percentage against C. neoformans ATCC 32264 (C. neoformans ATCC 32264; 125 μg∙mL^−1, 48 h) [%]	Inhibition percentage against C. neoformans ATCC 32264 (C. neoformans ATCC 32264; 250 μg∙mL^−1, 48 h)	MIC50 (minimum concentration to inhibit 50% of fungal growth), C. neoformans (C. neoformans ATCC 32264) [µg/mL]	Antifungal activity against C. albicans (in words) (C. albicans ATCC 10231; at the assayed concentrations (250–3.9 μg∙mL^−1))
COC(=O)C12CCCC(C)(C)C1CCc1cc(C(C)C)c(OC(=O)CCCc3cn(CSc4ccccc4)nn3)c(OC(=O)CCCc3cn(CSc4ccccc4)nn3)c12 (stereo not drawn) [Compound 10, Methyl(11,12-O-(4-(((1-phenylthio)methyl)-1H-1,2,3-triazol-4-yl)-butanoyloxy)-abieta-8,11,13-triene)-20-oate]	1.3 ± 1.3	2.8 ± 0.1	3.9 ± 0.9	10.1 ± 0.9	18.8 ± 0.4	35.0 ± 0.8	5.1 ± 1.3	>250	0.0	11.3 ± 0.5	14.4 ± 0.8	18.6 ± 1.5	19.1 ± 1.8	42.9 ± 2.0	63.9 ± 2.9%	250	–
CC(C)c1cc2c(c(OC(=O)CCc3cn(CSc4ccccc4)nn3)c1OC(=O)CCc1cn(CSc3ccccc3)nn1)C13CCCC(C)(C)C1CC2OC3=O (stereo not drawn) [Compound 17, (7β)-11,12-O-(3-(((1-phenylthio)methyl)-1H-1,2,3-triazol-4-yl)-propanoyloxy)-7,20-epoxyabieta-8,11,13-trien-20-one]	0.0	2.8 ± 0.6	4.8 ± 1.0	11.5 ± 0.7	21.2 ± 0.2	42.3 ± 0.7	6.7 ± 1.1	>250	0.0	0.0	0.0	0.0	0.0	11.4 ± 1.2	41.1 ± 1.3%	>250	weak effect
CC(C)c1cc2c(c(OC(=O)CCCc3cn(Cc4ccccc4)nn3)c1OC(=O)CCCc1cn(Cc3ccccc3)nn1)C13CCCC(C)(C)C1CC2OC3=O (stereo not drawn) [Compound 20, (7β)-11,12-O-(4-(1-benzyl-1H-1,2,3-triazol-4-yl)-butanoyloxy)-7,20-epoxyabieta-8,11,13-trien-20-one]	0.7 ± 0.1	1.6 ± 0.2	3.0 ± 0.4	10.9 ± 1.6	21.4 ± 3.4	34.5 ± 0.5	4.3 ± 0.4	>250	0.0	0.0	0.0	2.7 ± 2.7	10.4 ± 0.2	14.5 ± 1.2	22.0 ± 1.0%	>250	–
CC(C)c1cc2c(c(OC(=O)CCCc3cn(Cc4ccc([N+](=O)[O-])cc4)nn3)c1OC(=O)CCCc1cn(Cc3ccc([N+](=O)[O-])cc3)nn1)C13CCCC(C)(C)C1CC2OC3=O (stereo not drawn) [Compound 24, (7β)-11,12-O-(4-(1-(4-nitrobenzyl)-1H-1,2,3-triazol-4-yl)-butanoyloxy)-7,20-epoxyabieta-8,11,13-trien-20-one]	0.0	0.0	0.0	4.8 ± 0.6	14.3 ± 2.0	29.8 ± 1.9	3.4 ± 0.5	>250	4.9 ± 1.4	15.4 ± 0.1	21.0 ± 0.1	24.3 ± 0.5	27.3 ± 0.7	31.7 ± 1.6	45.8 ± 2.0%	>250	–
COC(=O)C12CCCC(C)(C)C1CCc1cc(C(C)C)c(OC(=O)CCCc3cn(Cc4ccc(Br)cc4)nn3)c(OC(=O)CCCc3cn(Cc4ccc(Br)cc4)nn3)c12 (stereo not drawn) [Compound 14, Methyl(11,12-O-(4-(1-(4-bromobenzyl)-1H-1,2,3-triazol-4-yl)-butanoyloxy)-abieta-8,11,13-triene)-20-oate]	1.3 ± 0.2	1.3 ± 0.3	1.9 ± 0.3	9.3 ± 1.5	13.3 ± 0.6	29.1 ± 2.5	6.3 ± 1.5	>250	0.0	4.5 ± 0.2	10.1 ± 1.0	12.0 ± 1.2	16.9 ± 1.1	30.1 ± 1.4	57.2%–67.4% and 67.4 ± 1.7%	250	–
